Measurements from article PMC7695371, “Mimetics of extra virgin olive oil phenols with anti-cancer stem cell activity” (Aging (Albany NY), 2020).

Tests used:
[1] = target: T1, DNMT3A (Homo sapiens, UniProt Q9Y6K1); assay: HotSpot radioisotope filter-binding methyltransferase assay, 10-dose; assay type: biochemical
T1 construct: recombinant, Reaction Biology Corp. HotSpot assay

[2] = target: FRAP1 (mTOR) (Homo sapiens, UniProt P42345); assay: FRET-based Z-LYTE kinase assay, […] concentrations; assay type: biochemical

T1 sequence (Q9Y6K1 whole entry, looked up): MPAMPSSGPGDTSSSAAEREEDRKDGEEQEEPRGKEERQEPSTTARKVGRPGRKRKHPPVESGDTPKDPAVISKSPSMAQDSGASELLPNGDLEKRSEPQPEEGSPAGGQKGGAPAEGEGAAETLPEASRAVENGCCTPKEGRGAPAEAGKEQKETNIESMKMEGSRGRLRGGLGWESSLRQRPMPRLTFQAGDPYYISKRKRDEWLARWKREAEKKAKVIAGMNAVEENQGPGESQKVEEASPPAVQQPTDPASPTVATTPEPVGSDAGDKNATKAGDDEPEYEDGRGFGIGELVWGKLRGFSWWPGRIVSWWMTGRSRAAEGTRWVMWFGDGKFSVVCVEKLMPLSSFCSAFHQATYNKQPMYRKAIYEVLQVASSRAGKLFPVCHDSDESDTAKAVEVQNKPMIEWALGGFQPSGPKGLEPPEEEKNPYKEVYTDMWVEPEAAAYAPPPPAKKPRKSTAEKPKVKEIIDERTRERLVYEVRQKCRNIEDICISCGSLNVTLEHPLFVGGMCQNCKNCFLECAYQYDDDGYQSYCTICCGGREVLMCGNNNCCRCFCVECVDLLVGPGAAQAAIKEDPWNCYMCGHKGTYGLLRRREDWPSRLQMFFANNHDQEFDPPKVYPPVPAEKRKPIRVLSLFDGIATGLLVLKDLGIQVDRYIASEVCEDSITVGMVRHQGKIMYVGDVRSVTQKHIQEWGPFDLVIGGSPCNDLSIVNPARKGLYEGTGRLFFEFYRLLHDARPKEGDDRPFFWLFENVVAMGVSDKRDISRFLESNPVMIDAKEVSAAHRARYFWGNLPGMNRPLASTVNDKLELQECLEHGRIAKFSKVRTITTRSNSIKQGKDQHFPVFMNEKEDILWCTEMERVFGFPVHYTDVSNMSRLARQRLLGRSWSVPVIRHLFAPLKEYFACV

## CCCC(=O)OCCc1ccc(O)c(O)c1 [CHEMBL1950046, 3,4-Dihydroxyphenethyl butyrate]
[1]
  IC50: > 150 µM
[2]
  IC50: ~39 µM
